Reference: patent US9029391B2 (priority 2011, dated 2015)

What follows are molecules tested on HIV (assay: MT4 Assay (anti-HIV activity)). Conditions: Human immunodeficiency virus 1, 96 h, read-out: HIV MT4 Assay IC50, HTLV-1 transformed cell line MT-4, cell titer glo, 10 point dose response curve.
Format: cell-based
Outline: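 IC50 values were fitted to 10-point dose-response series (3-4-fold dilutions, range >1000-fold), normalized to no-compound control. CellTiter-Glo read-out was taken after 96 hours in HTLV-1-transformed MT-4 cells. Cytotoxicity was measured in parallel under identical conditions.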

Row | Structure (SMILES) | IC50 [nM]
1 | CCc1c(-c2c(C(OC(C)(C)C)C(=O)O)n(C)c(=O)c3ccccc23)ccc2c1CCCO2 (centres unmarked) [Example 121, 2-(tert-butoxy)-2-[4-(5-ethyl-3,4-dihydro-2H-1-benzopyran-6-yl)-2-methyl-1-oxo-1,2-dihydroisoquinolin-3-yl]acetic acid] | 940
2 | Cc1c(-c2c(C(OC(C)(C)C)C(=O)O)n(C)c(=O)c3cc(OCC(=O)O)ccc23)ccc2c1CCCO2 (centres unmarked) [Example 122, 2-({3-[(tert-butoxy)(carboxy)methyl]-2-methyl-4-(5-methyl-3,4-dihydro-2H-1-benzopyran-6-yl)-1-oxo-1,2-dihydroisoquinolin-7-yl}oxy)acetic acid] | 50000
3 | Cc1c(-c2c(C(OC(C)(C)C)C(=O)O)n(C)c(=O)c3cc(OS(=O)(=O)N(C)C)ccc23)ccc2c1CCCO2 (centres unmarked) [Example 123, 2-(tert-butoxy)-2-{7-[(dimethylsulfamoyl)oxy]-2-methyl-4-(5-methyl-3,4-dihydro-2H-1-benzopyran-6-yl)-1-oxo-1,2-dihydroisoquinolin-3-yl}acetic acid] | 1220
4 | Cc1ccc2c(-c3cc(F)c4c(c3C)CCCO4)c(C(OC(C)(C)C)C(=O)O)n(C)c(=O)c2c1 (centres unmarked) [Example 124, 2-(tert-butoxy)-2-[4-(8-fluoro-5-methyl-3,4-dihydro-2H-1-benzopyran-6-yl)-2,7-dimethyl-1-oxo-1,2-dihydroisoquinolin-3-yl]acetic acid] | 130
5 | COc1ccc2c(-c3cc(F)c4c(c3C)CCCO4)c(C(OC(C)(C)C)C(=O)O)n(C)c(=O)c2c1 (centres unmarked) [Example 125, 2-(tert-butoxy)-2-[4-(8-fluoro-5-methyl-3,4-dihydro-2H-1-benzopyran-6-yl)-7-methoxy-2-methyl-1-oxo-1,2-dihydroisoquinolin-3-yl]acetic acid] | 320
6 | COc1ccc2c(-c3ccc4c(c3C)CCCO4)c(C(OC(C)(C)C)C(=O)O)n(C)c(=O)c2c1F (centres unmarked) [Example 126, 2-(tert-butoxy)-2-[8-fluoro-7-methoxy-2-methyl-4-(5-methyl-3,4-dihydro-2H-1-benzopyran-6-yl)-1-oxo-1,2-dihydroisoquinolin-3-yl]acetic acid] | 360
7 | Cc1c(-c2c(C(OC(C)(C)C)C(=O)O)n(C)c(=O)c3cc(C(F)(F)F)ccc23)ccc2c1CCCO2 (centres unmarked) [Example 127, 2-(tert-butoxy)-2-[2-methyl-4-(5-methyl-3,4-dihydro-2H-1-benzopyran-6-yl)-1-oxo-7-(trifluoromethyl)-1,2-dihydroisoquinolin-3-yl]acetic acid] | 1140
8 | Cc1c(-c2c(C(OC(C)(C)C)C(=O)O)n(C)c(=O)c3cc(OCc4ccc(S(C)(=O)=O)cc4)ccc23)ccc2c1CCCO2 (centres unmarked) [Example 128, 2-(tert-butoxy)-2-{7-[(4-methanesulfonylphenyl)-methoxy]-2-methyl-4-(5-methyl-3,4-dihydro-2H-1-benzopyran-6-yl)-1-oxo-1,2-dihydroisoquinolin-3-yl}acetic acid] | 380
9 | Cc1c(-c2c(C(OC(C)(C)C)C(=O)O)n(C)c(=O)c3cc(OCc4ccccn4)ccc23)ccc2c1CCCO2 (centres unmarked) [Example 129, 2-(tert-butoxy)-2-[2-methyl-4-(5-methyl-3,4-dihydro-2H-1-benzopyran-6-yl)-1-oxo-7-(pyridin-2-ylmethoxy)-1,2-dihydroisoquinolin-3-yl]acetic acid] | 200
10 | COc1cc2c(=O)n(C)c(C(OC(C)(C)C)C(=O)O)c(-c3ccc4c(c3C)CCCO4)c2cc1Cl (centres unmarked) [Example 130, 2-(tert-butoxy)-2-[6-chloro-7-methoxy-2-methyl-4-(5-methyl-3,4-dihydro-2H-1-benzopyran-6-yl)-1-oxo-1,2-dihydroisoquinolin-3-yl]acetic acid] | 3750
11 | Cc1ccc2c(-c3cc(F)c4c(c3C)CCCO4)c([C@H](OC(C)(C)C)C(=O)O)n(C)c(=O)c2c1 [Example 131, (2S)-2-(tert-butoxy)-2-[4-(8-fluoro-5-methyl-3,4-dihydro-2H-1-benzopyran-6-yl)-2,7-dimethyl-1-oxo-1,2-dihydroisoquinolin-3-yl]acetic acid] | 20
12 | Cc1c(-c2c(C(OC(C)(C)C)C(=O)O)n(C)c(=O)c3cc(OCc4ccc(C(F)(F)F)cc4)ccc23)ccc2c1CCCO2 (centres unmarked) [Example 132, 2-(tert-butoxy)-2-[2-methyl-4-(5-methyl-3,4-dihydro-2H-1-benzopyran-6-yl)-1-oxo-7-{[4-(trifluoromethyl)phenyl]-methoxy}-1,2-dihydroisoquinolin-3-yl]acetic acid] | 310
13 | Cc1nc(COc2ccc3c(-c4cc(F)c5c(c4C)CCCO5)c(C(OC(C)(C)C)C(=O)O)n(C)c(=O)c3c2)c(C)o1 (centres unmarked) [Example 133, 2-(tert-butoxy)-2-{7-[(dimethyl-1,3-oxazol-4-yl)methoxy]-4-(8-fluoro-5-methyl-3,4-dihydro-2H-1-benzopyran-6-yl)-2-methyl-1-oxo-1,2-dihydroisoquinolin-3-yl}acetic acid] | 930
14 | Cc1c(-c2c(C(OC(C)(C)C)C(=O)O)n(C)c(=O)c3cc(OCc4ccc(F)cc4F)ccc23)ccc2c1CCCO2 (centres unmarked) [Example 134, 2-(tert-butoxy)-2-{7-[(2,4-difluorophenyl)methoxy]-2-methyl-4-(5-methyl-3,4-dihydro-2H-1-benzopyran-6-yl)-1-oxo-1,2-dihydroisoquinolin-3-yl}acetic acid] | 70
15 | Cc1c(-c2c(C(OC(C)(C)C)C(=O)O)n(C)c(=O)c3cc(OC(C)C)ccc23)ccc2c1CCCO2 (centres unmarked) [Example 135, 2-(tert-butoxy)-2-[2-methyl-4-(5-methyl-3,4-dihydro-2H-1-benzopyran-6-yl)-1-oxo-7-(propan-2-yloxy)-1,2-dihydroisoquinolin-3-yl]acetic acid] | 140
16 | Cc1c(-c2c(C(OC(C)(C)C)C(=O)O)n(C)c(=O)c3cc(OCc4ccc(Cl)cc4)ccc23)ccc2c1CCCO2 (centres unmarked) [Example 136, 2-(tert-butoxy)-2-{7-[(4-chlorophenyl)methoxy]-2-methyl-4-(5-methyl-3,4-dihydro-2H-1-benzopyran-6-yl)-1-oxo-1,2-dihydroisoquinolin-3-yl}acetic acid] | 100
17 | Cc1c(-c2c(C(OC(C)(C)C)C(=O)O)n(C)c(=O)c3cc(OCc4cncnc4)ccc23)ccc2c1CCCO2 (centres unmarked) [Example 137, 2-(tert-butoxy)-2-[2-methyl-4-(5-methyl-3,4-dihydro-2H-1-benzopyran-6-yl)-1-oxo-7-(pyrimidin-5-ylmethoxy)-1,2-dihydroisoquinolin-3-yl]acetic acid] | 1030
18 | Cc1c(-c2c(C(OC(C)(C)C)C(=O)O)n(C)c(=O)c3cc(OCc4ccc(F)c(F)c4)ccc23)ccc2c1CCCO2 (centres unmarked) [Example 138, 2-(tert-butoxy)-2-{7-[(3,4-difluorophenyl)methoxy]-2-methyl-4-(5-methyl-3,4-dihydro-2H-1-benzopyran-6-yl)-1-oxo-1,2-dihydroisoquinolin-3-yl}acetic acid] | 70
19 | Cc1c(-c2c([C@H](OC(C)(C)C)C(=O)O)n(C)c(=O)c3cc(F)ccc23)cc(F)c2c1CCCO2 [Example 139, (2S)-2-(tert-butoxy)-2-[7-fluoro-4-(8-fluoro-5-methyl-3,4-dihydro-2H-1-benzopyran-6-yl)-2-methyl-1-oxo-1,2-dihydroisoquinolin-3-yl]acetic acid] | 30
20 | Cc1c(-c2c([C@H](OC(C)(C)C)C(=O)O)n(C)c(=O)c3ccccc23)ccc2c1CCCO2 [Example 140, (2S)-2-(tert-butoxy)-2-[2-methyl-4-(5-methyl-3,4-dihydro-2H-1-benzopyran-6-yl)-1-oxo-1,2-dihydroisoquinolin-3-yl]acetic acid] | 110
